US10730870B2, “Compounds and methods for the enhanced degradation of targeted proteins” (Arvinas, Inc., priority 2015, dated 2020)

Biological target: VHL (Homo sapiens (Human), UniProt P40337)
Experiment: VHL fluorescence polarization (FP) competition assay
Format: binding

| SMILES | IC50 (0.25% in DMSO) | IC50 (1% in DMSO) | IC50 (10% in DMSO) |
| --- | --- | --- | --- |
| CC[C@H](C)[C@@H](C(=O)N1C[C@H](O)C[C@H]1C(=O)NCc1ccc(-c2scnc2C)cc1)N1Cc2ccccc2C1=O [Example 30, (2S,4R)-4-hydroxy-1-((2S,3S)-3-methyl-2-(1-oxoisoindolin-2-yl)pentanoyl)-N-(4-(4-methylthiazol-5-yl)benzyl)pyrrolidine-2-carboxamide] | 2.27 µM | 0.572 µM | 0.859 µM |
| CC[C@H](C)[C@H](NC(=O)CCC(C)C)C(=O)N1C[C@H](O)C[C@H]1C(=O)NCc1ccc(-c2scnc2C)cc1 [Example 31, (2S,4R)-4-hydroxy-1-((2S,3S)-3-methyl-2-(4-methylpentanamido)pentanoyl)-N-(4-(4-methylthiazol-5-yl)benzyl)pyrrolidine-2-carboxamide] | 3.22 µM | 1.28 µM | 2.11 µM |
| Cc1ncsc1-c1ccc(CNC(=O)[C@@H]2C[C@@H](O)CN2C(=O)[C@@H](NCCC(C)C)C2CCCC2)cc1 [Example 32, (2S,4R)-1-((S)-2-cyclopentyl-2-(isopentylamino)acetyl)-4-hydroxy-N-(4-(4-methylthiazol-5-yl)benzyl)pyrrolidine-2-carboxamide] | 2.22 µM | 1.15 µM | 3.36 µM |
| Cc1ncsc1-c1ccc(CNC(=O)[C@@H]2C[C@@H](O)CN2C(=O)[C@H](C(C)C)N2Cc3c(F)cccc3C2=O)cc1 [Example 33, (2S,4R)-1-((S)-2-(4-fluoro-1-oxoisoindolin-2-yl)-3-methylbutanoyl)-4-hydroxy-N-(4-(4-methylthiazol-5-yl)benzyl)pyrrolidine-2-carboxamide] | 1.94 µM | 0.539 µM | 1.08 µM |
| Cc1ncsc1-c1ccc(CNC(=O)[C@@H]2C[C@@H](O)CN2C(=O)[C@H](C(C)C)N2Cc3cc(C#N)ccc3C2=O)cc1 [Example 34, (2S,4R)-1-((S)-2-(5-cyano-1-oxoisoindolin-2-yl)-3-methylbutanoyl)-4-hydroxy-N-(4-(4-methylthiazol-5-yl)benzyl)pyrrolidine-2-carboxamide] | 2.12 µM | 0.66 µM | 1.18 µM |
| Cc1ncsc1-c1ccc(CNC(=O)[C@@H]2C[C@@H](O)CN2C(=O)[C@H](C(C)C)N2Cc3c(C#N)cccc3C2=O)cc1 [Example 35, (2S,4R)-1-((S)-2-(4-cyano-1-oxoisoindolin-2-yl)-3-methylbutanoyl)-4-hydroxy-N-(4-(4-methylthiazol-5-yl)benzyl)pyrrolidine-2-carboxamide] | 2.05 µM | 0.509 µM | 1.3 µM |
| Cc1ncsc1-c1ccc(CNC(=O)[C@@H]2C[C@@H](O)CN2C(=O)[C@@H](NC(=O)C2CCCCC2)C(C)(C)C)cc1 [Example 36, (2S,4R)-1-((S)-2-(cyclohexanecarboxamido)-3,3-dimethylbutanoyl)-4-hydroxy-N-(4-(4-methylthiazol-5-yl)benzyl)pyrrolidine-2-carboxamide] | 6.54 µM | 3.55 µM | 5.48 µM |
| CSC[C@@H](C(=O)N1C[C@H](O)C[C@H]1C(=O)NCc1ccc(-c2scnc2C)cc1)N1Cc2ccccc2C1=O [Example 37, (2S,4R)-4-hydroxy-N-(4-(4-methylthiazol-5-yl)benzyl)-1-((R)-3-(methylthio)-2-(1-oxoisoindolin-2-yl)propanoyl)pyrrolidine-2-carboxamide] | 1.9 µM | 20.6 µM | 7.41 µM |
| Cc1ncsc1-c1ccc(CNC(=O)[C@@H]2C[C@@H](O)CN2C(=O)[C@H](C2CCCC2)N2Cc3ccccc3C2=O)cc1 [Example 38, (2S,4R)-1-((S)-2-cyclopentyl-2-(1-oxoisoindolin-2-yl)acetyl)-4-hydroxy-N-(4-(4-methylthiazol-5-yl)benzyl)pyrrolidine-2-carboxamide] | 2.19 µM | 0.758 µM | 1.09 µM |
| Cc1ncsc1-c1ccc([C@H](C)NC(=O)[C@@H]2C[C@@H](O)CN2C(=O)[C@H](C(C)C)N2Cc3ccccc3C2=O)cc1 [Example 39, (2S,4R)-4-hydroxy-N-[(1S)-1-[4-(4-methyl-1,3-thiazol-5-yl)phenyl]ethyl]-1-[(2S)-3-methyl-2-(1-oxo-2,3-dihydro-1H-isoindol-2-yl)butanoyl]pyrrolidine-2-carboxamide] | 0.958 µM | 0.699 µM | 1.63 µM |
| CC(C)[C@@H](C(=O)N1C[C@H](O)C[C@H]1C(=O)NCc1ccc(-c2ccccc2)cc1)N1Cc2ccccc2C1=O [Example 40, (2S,4R)—N-(biphenyl-4-ylmethyl)-4-hydroxy-1-((S)-3-methyl-2-(1-oxoisoindolin-2-yl)butanoyl)pyrrolidine-2-carboxamide] | 17.5 µM | 2.36 µM | 3.92 µM |
| CC(C)[C@@H](C(=O)N1C[C@H](O)C[C@H]1C(=O)NCc1ccc(-c2ccn[nH]2)cc1)N1Cc2ccccc2C1=O [Example 41, (2S,4R)—N-(4-(1H-pyrazol-5-yl)benzyl)-4-hydroxy-1-((S)-3-methyl-2-(1-oxoisoindolin-2-yl)butanoyl)pyrrolidine-2-carboxamide] | 7.28 µM | 1.19 µM | 3.05 µM |
| Cc1ncsc1-c1ccc(CNC(=O)[C@@H]2C[C@@H](O)CN2C(=O)[C@H](C(C)C)N2Cc3cccc(Br)c3C2=O)cc1 [Example 42, (2S,4R)-1-((S)-2-(7-bromo-1-oxoisoindolin-2-yl)-3-methylbutanoyl)-4-hydroxy-N-(4-(4-methylthiazol-5-yl)benzyl)pyrrolidine-2-carboxamide] | – | 4.95 µM | 15.7 µM |
| Cc1ncsc1-c1ccc(CNC(=O)[C@@H]2C[C@@H](O)CN2C(=O)[C@@H](NC(=O)c2ccc(C#N)cc2)C(C)(C)C)cc1 [Example 43, (2S,4R)-1-((S)-2-(4-cyanobenzamido)-3,3-dimethylbutanoyl)-4-hydroxy-N-(4-(4-methylthiazol-5-yl)benzyl)pyrrolidine-2-carboxamide] | – | 0.906 µM | 1.2 µM |
| Cc1ncsc1-c1ccc(CNC(=O)[C@@H]2C[C@@H](O)CN2C(=O)[C@@H](NC(=O)CCc2ccccc2)C(C)(C)C)cc1 [Example 44, (2S,4R)-1-((S)-3,3-dimethyl-2-(3-phenylpropanamido)butanoyl)-4-hydroxy-N-(4-(4-methylthiazol-5-yl)benzyl)pyrrolidine-2-carboxamide] | – | 0.385 µM | 0.465 µM |
| Cc1ncsc1-c1ccc(CNC(=O)[C@@H]2C[C@@H](O)CN2C(=O)[C@H]([C@H](C)O)N2Cc3ccccc3C2=O)cc1 [Example 45, (2S,4R)-4-hydroxy-1-((2S,3S)-3-hydroxy-2-(1-oxoisoindolin-2-yl)butanoyl)-N-(4-(4-methylthiazol-5-yl)benzyl)pyrrolidine-2-carboxamide] | – | ~32 µM | 472 µM |
| Cc1ncsc1-c1ccc(CNC(=O)[C@@H]2C[C@@H](O)CN2C(=O)C(C)(C)N2Cc3ccccc3C2=O)cc1 [Example 46, (2S,4R)-4-hydroxy-1-(2-methyl-2-(1-oxoisoindolin-2-yl)propanoyl)-N-(4-(4-methylthiazol-5-yl)benzyl)pyrrolidine-2-carboxamide] | – | 19400 µM | 5100 µM |
| Cc1ncsc1-c1ccc(CNC(=O)[C@@H]2C[C@@H](O)CN2C(=O)[C@H](C(C)C)N2Cc3cccc(C#N)c3C2=O)cc1 [Example 47, (2S,4R)-1-((S)-2-(7-cyano-1-oxoisoindolin-2-yl)-3-methylbutanoyl)-4-hydroxy-N-(4-(4-methylthiazol-5-yl)benzyl)pyrrolidine-2-carboxamide] | – | 0.178 µM | 0.339 µM |
